The term IC50 denotes the concentration that gives 50% inhibition.

For the first assay, the target named is T1, full-length human PKCι (Homo sapiens, UniProt P41743).
T1 construct: Recombinant, full-length human PKCι expressed in Sf21 insect cells is also commercially available; purchased; host or cells: Sf21 insect cells
T1 sequence (P41743 1-596): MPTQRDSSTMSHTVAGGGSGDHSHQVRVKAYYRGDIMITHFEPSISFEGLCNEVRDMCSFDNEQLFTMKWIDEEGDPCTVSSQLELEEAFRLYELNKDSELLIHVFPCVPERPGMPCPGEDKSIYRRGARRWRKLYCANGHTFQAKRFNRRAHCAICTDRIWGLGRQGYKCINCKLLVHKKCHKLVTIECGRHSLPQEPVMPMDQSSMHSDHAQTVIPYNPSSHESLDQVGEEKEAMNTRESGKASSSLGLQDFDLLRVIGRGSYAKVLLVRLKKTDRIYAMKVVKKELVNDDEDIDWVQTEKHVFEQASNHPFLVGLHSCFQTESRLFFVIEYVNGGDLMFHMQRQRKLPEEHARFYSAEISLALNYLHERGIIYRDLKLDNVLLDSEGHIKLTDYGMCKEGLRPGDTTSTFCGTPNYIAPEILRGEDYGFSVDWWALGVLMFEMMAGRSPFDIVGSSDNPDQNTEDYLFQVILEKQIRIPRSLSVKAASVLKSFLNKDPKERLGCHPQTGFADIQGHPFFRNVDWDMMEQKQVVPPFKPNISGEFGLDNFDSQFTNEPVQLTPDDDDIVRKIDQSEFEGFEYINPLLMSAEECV
In words: PKCι IC50 IMAP fluorescence polarisation assay, full-length enzyme. It is filed as biochemical. As to conditions: full length PKCi at 15 μM ATP; read-out: IC50 in IMAP assay against full length PKCi. Background: Polarisation of emitted light reports the rotation of a fluorescent probe.
In the case of `c1cnc(Nc2cc(-c3nc(N[C@@H]4CCNC4)c4sccc4n3)ccn2)cn1` [compound 577, {2-[2-(Pyrazin-2-ylamino)-pyridin-4-yl]-thieno[3,2-d]pyrimidin-4-yl}-(R)-pyrrolidin-3-yl-amine], the IC50 fell in the range of 0.1 to 1 µM.
As for `Cc1ccsc1-c1csc2c(NC[C@@H](N)Cc3ccccc3)nc(-c3ccncc3)nc12` [compound 396, (S)-N*1*-[7-(3-Methyl-thiophen-2-yl)-2-pyridin-4-yl-thieno[3,2-d]pyrimidin-4-yl]-3-phenyl-propane-1,2-diamine], the half-inhibitory concentration (IC50) fell in the range of 0.1 to 1 µM.
As to `Nc1csc2c(NC[C@@H](N)Cc3ccccc3)nc(-c3ccncc3)nc12` [compound 566, N*4*-((S)-2-Amino-3-phenyl-propyl)-2-pyridin-4-yl-thieno[3,2-d]pyrimidine-4,7-diamine], the IC50 is 0.1 to 1 µM.
Consider `CC(C)(N)C#Cc1csc2c(NC[C@@H](N)Cc3ccccc3)nc(-c3ccncc3)nc12` [compound 516, (S)-N*1*-[7-(3-Amino-3-methyl-but-1-ynyl)-2-pyridin-4-yl-thieno[3,2-d]pyrimidin-4-yl]-3-phenyl-propane-1,2-diamine], for which the IC50 was in the range of 1 to 10 µM.
For `c1cc(-c2nc(N[C@@H]3CCNC3)c3scc(-c4ccn[nH]4)c3n2)ccn1` [compound 403, [7-(2H-Pyrazol-3-yl)-2-pyridin-4-yl-thieno[3,2-d]pyrimidin-4-yl]-(R)-pyrrolidin-3-yl-amine], the 50% inhibitory concentration (IC50) was less than 0.1 µM.
`CCC[C@@H](C)[C@H](O)C#Cc1csc2c(NC[C@@H](N)Cc3ccccc3)nc(-c3ccncc3)nc12` [compound 522, (S)-1-[4-((S)-2-Amino-3-phenyl-propylamino)-2-pyridin-4-yl-thieno[3,2-d]pyrimidin-7-yl]-4-methyl-hept-1-yn-3-ol]: the IC50 is 1 to 10 µM.
Still for that read-out and setting: the figure for `O=C(Nc1csc2c(N[C@@H]3CCNC3)nc(-c3ccncc3)nc12)C1CCCCC1` [compound 473, Cyclohexanecarboxylic acid [2-pyridin-4-yl-4-((R)-pyrrolidin-3-ylamino)-thieno[3,2-d]pyrimidin-7-yl]-amide] is 10 to 40 µM.
`NC(=O)CN1CC[C@@H](Nc2nc(-c3ccnc(Nc4ccccc4)c3)nc3ccsc23)C1` [compound 631, 2-{(R)-3-[2-(2-Phenylamino-pyridin-4-yl)-thieno[3,2-d]pyrimidin-4-ylamino]-pyrrolidin-1-yl}-acetamide]: the IC50 is 10 to 40 µM.
As for `NC(CNc1nc(-c2ccncc2F)nc2c(-c3ccc(F)cc3)csc12)Cc1ccccc1` (stereo in doubt) [compound 430, (R)-N*1*-[7-(4-Fluoro-phenyl)-2-(3-fluoro-pyridin-4-yl)-thieno[3,2-d]pyrimidin-4-yl]-3-phenyl-propane-1,2-diamine], the IC50 is 1 to 10 µM.
On to `NC(CNc1nc(-c2ccncc2F)nc2c(-c3ccsc3)csc12)Cc1ccccc1` (stereo in doubt) [compound 431, (R)-N*1*-[2-(3-Fluoro-pyridin-4-yl)-7-thiophen-3-yl-thieno[3,2-d]pyrimidin-4-yl]-3-phenyl-propane-1,2-diamine], for which the 50% inhibitory concentration (IC50) lay within 1 to 10 µM.
`CC(C)(C)c1sc2c(NC[C@@H](N)Cc3ccccc3)nc(-c3ccncc3)nc2c1-c1ccn[nH]1` [compound 468, (S)-N*1*-[6-tert-Butyl-7-(2H-pyrazol-3-yl)-2-pyridin-4-yl-thieno[3,2-d]pyrimidin-4-yl]-3-phenyl-propane-1,2-diamine]: the half-maximal inhibitory concentration (IC50) was in the range of 1 to 10 µM.
The same measure, in the same setting: the value for `C[C@H](O)C#Cc1csc2c(NC[C@@H](N)Cc3ccccc3)nc(-c3ccncc3F)nc12` [compound 508, (S)-4-[4-((S)-2-Amino-3-phenyl-propylamino)-2-(3-fluoro-pyridin-4-yl)-thieno[3,2-d]pyrimidin-7-yl]-but-3-yn-2-ol] was 0.1 to 1 µM; that for `CN1CCN(c2ccc(C(=O)Nc3cc(-c4nc(N[C@@H]5CCNC5)c5sccc5n4)ccn3)cc2)CC1` [compound 620, 4-(4-Methyl-piperazin-1-yl)-N-{4-[4-((R)-pyrrolidin-3-ylamino)-thieno[3,2-d]pyrimidin-2-yl]-pyridin-2-yl}-benzamide] was 0.1 to 1 µM; that for `Fc1cnccc1-c1nc(N[C@@H]2CCNC2)c2scc(Nc3cccnc3)c2n1` [compound 494, 2-(3-Fluoro-pyridin-4-yl)-N*7*-pyridin-3-yl-N*4*- (R)-pyrrolidin-3-yl-thieno[3,2-d]pyrimidine-4,7-diamine] was 10 to 40 µM.
Regarding `CN(C)C(=O)Nc1cc(-c2nc(N[C@@H]3CCNC3)c3sccc3n2)ccn1` [compound 581, 1,1-Dimethyl-3-{4-[4-((R)-pyrrolidin-3-ylamino)-thieno[3,2-d]pyrimidin-2-yl]-pyridin-2-yl}-urea], the IC50 fell in the range of 1 to 10 µM.
Turning to `CCC(C)(C)C(=O)Nc1csc2c(N[C@@H]3CCNC3)nc(-c3ccncc3)nc12` [compound 471, 2,2-Dimethyl-N-[2-pyridin-4-yl-4-((R)-pyrrolidin-3-ylamino)-thieno[3,2-d]pyrimidin-7-yl]-butyramide], the half-inhibitory concentration (IC50) fell in the range of 10 to 40 µM.
`COC/C=C/c1csc2c(NC[C@@H](N)Cc3ccccc3)nc(-c3ccncc3)nc12` [compound 404, (S)-N*1*-[7-((E)-3-Methoxy-propenyl)-2-pyridin-4-yl-thieno[3,2-d]pyrimidin-4-yl]-3-phenyl-propane-1,2-diamine]: the IC50 is 0.1 to 1 µM.
On the same count and under the same terms, the figure for `F[C@@H]1CNC[C@@H]1Nc1nc(-c2ccncc2)nc2ccsc12` [compound 321, ((3S,4R)-4-Fluoro-pyrrolidin-3-yl)-(2-pyridin-4-yl-thieno[3,2-d]pyrimidin-4-yl)-amine] is 10 to 40 µM.
`N[C@H](CNc1nc(-c2ccncc2)nc2c(Nc3ccncn3)csc12)Cc1ccccc1` [compound 489, N*4*-((S)-2-Amino-3-phenyl-propyl)-2-pyridin-4-yl-N*7*-pyrimidin-4-yl-thieno[3,2-d]pyrimidine-4,7-diamine]: the IC50 fell in the range of 1 to 10 µM.

The assay is the same for the next values; noted with them: full length PKCi at 15 μM ATP; read-out: IC50 in IMAP assay against full length PKCi (Activity).
Consider `N[C@@H](CNc1nc(-c2ccncc2)nc2sc3c(c12)CCCC3)Cc1cccc2ccccc12` [compound 52, (R)-3-Naphthalen-1-yl-N*1*- (2-pyridin-4-yl-5,6,7,8-tetrahydro-benzo[4,5]thieno[2,3-d]pyrimidin-4-yl)-propane-1,2-diamine], for which the IC50 was 1 to 10 µM.
The same measure, in the same setting: the value for `CN(C)CC(=O)N1CCc2c(sc3nc(-c4ccncc4)nc(NCCN)c23)C1` [compound 111, 1-[4-(2-Amino-ethylamino)-2-pyridin-4-yl-5,8-dihydro-6H-pyrido[4′,3′:4,5]thieno[2,3-d]pyrimidin-7-yl]-2-dimethylamino-ethanone] was 10 to 40 µM; that for `NCCNc1nc(-c2ccncc2)nc2sc3c(c12)CCN(C(=O)c1ccccc1)C3` [compound 27, [4-(2-Amino-ethylamino)-2-pyridin-4-yl-5,8-dihydro-6H-pyrido[4′,3′:4,5]thieno[2,3-d]pyrimidin-7-yl]-phenyl-methanone] was 10 to 40 µM; that for `N[C@H](CNc1nc(-c2ccncc2)nc2sc3c(c12)CCCC3)Cc1ccncc1` [compound 56, (S)-3-Pyridin-4-yl-N*1*-(2-pyridin-4-yl-5,6,7,8-tetrahydro-benzo[4,5]thieno[2,3-d]pyrimidin-4-yl)-propane-1,2-diamine] was 1 to 10 µM.
With `N[C@H](CNc1nc(-c2ccncc2)nc2sc3c(c12)CCCC3)Cc1ccc(F)cc1` [compound 50, (S)-3-(4-Fluoro-phenyl)-N*1*-(2-pyridin-4-yl-5,6,7,8-tetrahydro-benzo[4,5]thieno[2,3-d]pyrimidin-4-yl)-propane-1,2-diamine], the IC50 fell in the range of 1 to 10 µM.

For the origin of these results see patent publication US10183950B2, “Thienopyrimidine inhibitors of atypical protein kinase C” (Cancer Research Technology Limited, priority 2011, dated 2019).
